# From patent publication US6310210A, “Camptothecin derivatives” (Kabushiki Kaisha Yakult Honsha, priority 1997, dated 2001)
# Assays:
# [1] = Solubility of each hydrochloride in purified water; format: physicochemical
# Procedure: A corresponding camptothecin-21-(2-dimethylamino) ethylamide derivative (100-200 mg) was added with an aqueous 0.1 N HCl solution (1.05 eq.) and dissolved, if necessary, further by adding purified water. The solution was filtered using MILLEX-GV ([…] Filter Unit), and the filtrate was lyophilized to give the desired hydrochloride.
# Table 1: Solubility of each hydrochloride in purified water
# [2] = Stability test in water at each pH (phosphate buffer, HPLC); format: physicochemical; details: for Amount of the compound in test solution: room temperature (about 26° C.)
# Procedure: 1) Preparation of calibration curve:
# 1.05 mg of the compound 1 and 1.10 mg of the compound A (Note) were measured, dissolved in acetonitrile 10 ml to give a standard solution. 20 μl of the standard solution was tested by HPLC method (procedure condition 1). The peak area of the compound 1 and the compound A (Note), which is obtained from the chromatograph of the standard solution is measured by an automatic integration method, and the obtained area is plotted against an amount of the compound 1 and the compound A (2.1 μg and 2.2 μg) by 20 μl to prepare a calibration curve.
# [HPLC method, procedure condition 1]
# Column: Inertsil ODS-3 (5-250), 40 deg.
# Mobile phase: 0.01 M potassium dihydrogenphosphate-acetonitrile (3:1)
# Detection: UV absorptiometer (254 nm)
# About 1 mg (×3) of the compound 1 were measured, dissolved adding a phosphate buffer 10 ml of pH 10.0, 7.0 or 5.4, stirred at room temperature (about 26° C.) to make a test solution. As to each 20 μl of the test solution at the time of dissolution, 3 hr later and 24 hr later, the tests were carried out by the HPLC method (procedure condition 1). The amounts of the compound 1 were measured from the obtained area. The amounts of the compound A in each pH were measured.
# The amounts (μg/ml) of the compound 1 and the compound A at the time of dissolution, 3 hr later and 24 hr later in each pH are shown in Table 7.
# [3] = system: mouse leukemia L1210; experiment: Anti-tumor activity: life prolonging effect in mice transplanted intraperitoneally with mouse leukemia L1210 (T/C%); format: in vivo; details: for Anti-tumor activity (T/C%): i.p. day 1, 5 and 9
# Procedure: 5×10^5 cells of mouse leukemia L1210 were transplanted intraperitoneally to a group of six female CDP1 mice (7 weeks old, body weight 17-19 g). A test substance was administered intraperitoneally on day 1, 5 and 9, and its life prolonging effect was observed. In a case of the administration of a test substance as an acid addition salt, it was dissolved in purified water. The total administration amount was 1.56-400 mg/kg. The anti-tumor activity was expressed by the value (T/C%) in which the ratio of the mean survival days of a drug administered group (T) to the mean survival days of a not administered group (C) is multiplied by 100.
smiles,measurement,setting,value
"CCc1c2c(nc3ccccc13)-c1cc([C@@](O)(CC)C(=O)NCCN(C)C)c(COC(=O)NC)c(=O)n1C2 [Compound 1, 7-Ethyl-17-methylcarbamoyloxycamptothecin-21-(2-dimethylamino)ethylamide]",solubility,[1],≥ 50 mg/mL
same,Amount of the compound in test solution,"[2]; pH 5.4, 3 hr later",118 µg/mL
same,Amount of the compound in test solution,"[2]; pH 5.4, 24 hr later",118 µg/mL
same,Amount of the compound in test solution,"[2]; pH 5.4, at the time of dissolution",118 µg/mL
same,Amount of the compound in test solution,"[2]; pH 7.0, 3 hr later",105 µg/mL
same,Amount of the compound in test solution,"[2]; pH 7.0, 24 hr later",105 µg/mL
same,Amount of the compound in test solution,"[2]; pH 7.0, at the time of dissolution",105 µg/mL
same,Stability in aqueous solution (in words),"[2]; pH 7.0 and 5.4, room temperature",stably present at room temperature
same,Amount of the compound in test solution,"[2]; pH 10.0, 3 hr later",106 µg/mL
same,Amount of the compound in test solution,"[2]; pH 10.0, 24 hr later",97 µg/mL
same,Amount of the compound in test solution,"[2]; pH 10.0, at the time of dissolution",109 µg/mL
same,remaining at 24 h,"[2]; phosphate buffer, pH 10.0, after 24 hr, read-out: remained in the aqueous solution",89%
same,Anti-tumor activity (T/C%),"[3]; Table 2, total dose 3.13 mg/kg",97%
same,Anti-tumor activity (T/C%),"[3]; Table 2, total dose 6.25 mg/kg",97%
same,Anti-tumor activity (T/C%),"[3]; Table 2, total dose 12.5 mg/kg",95%
same,Anti-tumor activity (T/C%),"[3]; Table 2, total dose 25 mg/kg",97%
same,Anti-tumor activity (T/C%),"[3]; Table 2, total dose 50 mg/kg",97%
same,Anti-tumor activity (T/C%),"[3]; Table 2, total dose 100 mg/kg",139%
same,Anti-tumor activity (T/C%),"[3]; Table 2, total dose 200 mg/kg",145%
"CCc1c2c(nc3ccccc13)-c1cc([C@@](O)(CC)C(=O)NCCN(C)C)c(COC(=O)N(C)C)c(=O)n1C2 [Compound 14, 17-Dimethylcarbamoyloxy-7-ethylcamptothecin-21-(2-dimethylamino)ethylamide]",solubility,[1],~50 mg/mL
same,Anti-tumor activity (T/C%),"[3]; Table 4, total dose 3.13 mg/kg",118%
same,Anti-tumor activity (T/C%),"[3]; Table 4, total dose 6.25 mg/kg",121%
same,Anti-tumor activity (T/C%),"[3]; Table 4, total dose 12.5 mg/kg",126%
same,Anti-tumor activity (T/C%),"[3]; Table 4, total dose 25 mg/kg",136%
same,Anti-tumor activity (T/C%),"[3]; Table 4, total dose 50 mg/kg",149%
same,Anti-tumor activity (T/C%),"[3]; Table 4, total dose 100 mg/kg",218%
same,Anti-tumor activity: fraction in parentheses after T/C% (meaning not given),"[3]; Table 4, total dose 200 mg/kg, group of six mice",4/6
same,Anti-tumor activity (T/C%),"[3]; Table 4, total dose 200 mg/kg",523%
